The values below come from patent publication US20060280697A1, “Composition” (Conopco Inc, d/b/a UNILEVER, priority 2005, published 2006).

Molecules are shown by their SMILES. “Also recorded” adds a separate entry of the source.

This assay is described as follows: cooling sensation / cooling effect of synthesised compounds.

As to `COc1cccc(C2=CCN(c3ccccc3O)C(=O)N2)c1` [1-(2′-hydroxyphenyl)-4-(3″-methoxyphenyl)-1,2,3,6-tetrahydropyrimidine-2-one], the cooling effect entry is “good cooling effects; also recorded: exhibit a cooling effect”.

Regarding `O=C1NC(c2ccccc2)=CCN1c1ccccc1O` [1-(2′-hydroxyphenyl)-4-phenyl-1,2,3,6-tetrahydropyrimidine-2-one], the cooling effect entry is reported as “good cooling effects; also recorded: exhibit a cooling effect”.

As for `O=C1NC(c2cccc([N+](=O)[O-])c2)=CCN1c1ccccc1C(F)(F)F` [1-(2′-trifluoromethylphenyl)-4-(3″-nitrophenyl)-1,2,3,6-tetrahydropyrimidine-2-one], the cooling effect entry is listed as “good cooling effects; also recorded: exhibit a cooling effect”.

As for `O=C1NC(c2cccc([N+](=O)[O-])c2)=CCN1c1ccccc1` [1-phenyl-4-(3″-nitrophenyl)-1,2,3,6-tetrahydropyrimidine-2-one], the cooling effect entry is on record as “good cooling effects; also recorded: exhibit a cooling effect”.
